Results taken from PMC8556085, “Antimicrobial and Antioxidant Secondary Metabolites from Trifolium baccarinii Chiov. (Fabaceae) and Their Mechanisms of Antibacterial Action” (BioMed Research International, 2021).
In brackets after ≈: the same amount, converted by molar mass. Like-named read-outs stand apart in the source and are kept apart here. Marks after values point to notes of the source that are not given here.

How the values were obtained:
[1] = DPPH free radical scavenging assay; conditions: for DPPH free radical scavenging activity (EC50): mean ± SD
Experimental: The free radical scavenging activity of extracts and compounds was evaluated according to the described method. The EC50 (μg/mL), which is the amount of sample necessary to inhibit by 50% the absorbance of free radical DPPH, was calculated. Vitamin C was used as a standard control. All the analyses were carried out in triplicate and repeated three times.

Escherichia coli S2(1) = assay: Broth microdilution MIC/MMC; format: cell-based; conditions: for MIC: 24 h, 37°C, read-out: MIC
Experimental: (§1) The antimicrobial activity was performed against five bacterial and two fungal species. The selected microorganisms were the Gram-positive (Staphylococcus aureus ATCC25923, methicillin-resistant Staphylococcus aureus 03 (MRSA03), and methicillin-resistant Staphylococcus aureus 04 (MRSA04)) and Gram-negative (Pseudomonas aeruginosa ATCC27853 and Escherichia coli S2(1)) bacteria and yeast strains of Candida albicans ATCC10231 and Cryptococcus neoformans H99. These microorganisms were taken from our laboratory collection. The fungal and bacterial strains were conserved on Sabouraud Dextrose Agar (SDA, Conda, Madrid, Spain) and nutrient agar (NA, Conda) slants, respectively.
(§2) The antimicrobial activity was investigated by determining the minimum inhibitory concentrations (MICs), minimum bactericidal concentrations (MBC), and minimum fungicidal concentrations (MFCs). MICs of extracts/compounds were monitored using the broth microdilution method. Dimethyl sulfoxide (DMSO, Fisher Chemicals) was used to dissolve the test sample to produce a stock solution that was twofold serially diluted in Mueller-Hinton broth (MHB) for bacteria and Sabouraud Dextrose Broth (SDB) for fungi to obtain a concentration range of 4096 to 0.25 μg/mL. One hundred microliters of each concentration was introduced into a well (96-well microplate) containing 90 μL of SDB or MHB and 10 μL of inoculum (at 1 × 10^6 CFU/mL for bacteria and 1 × 10^5 spores/mL for yeasts) which were added to obtain a final concentration range of 2048 to 0.125 μg/mL. Plates were covered and incubated on the shaker at 37°C, 30°C, and 30°C during 24 h, 48 h, and 72 h for bacteria, Candida albicans, and Cryptococcus neoformans, respectively. The MICs were visually assessed after the incubation period and were considered the lowest sample concentration that inhibits the growth or the visual growth of the organism.
(§3) The positive controls were oxacillin (Sigma-Aldrich, Steinheim, Germany) for bacteria and nystatin (Sigma-Aldrich, Steinheim, Germany) for yeasts, and the negative control was broth with 20 μL of DMSO. The assay was carried out in triplicate.

[2] = system: Staphylococcus aureus ATCC25923; assay: Broth microdilution MIC/MMC; format: cell-based; conditions: for MBC / MMC/MIC: Staphylococcus aureus ATCC25923; for MIC: Staphylococcus aureus ATCC25923, 24 h, 37°C, read-out: MIC
Experimental: as §1, §2, §3

[3] = system: methicillin-resistant Staphylococcus aureus 03 (MRSA03); assay: Broth microdilution MIC/MMC; format: cell-based; conditions: for MMC/MIC / MBC: MRSA03; for MBC / MIC: Staphylococcus aureus; for MIC: MRSA03, 24 h, 37°C, read-out: MIC
Experimental: as §1, §2, §3

[4] = system: Pseudomonas aeruginosa ATCC27853; assay: Broth microdilution MIC/MMC; format: cell-based; conditions: for MBC / MMC/MIC: Pseudomonas aeruginosa ATCC27853; for MIC: Pseudomonas aeruginosa ATCC27853, 24 h, 37°C, read-out: MIC
Experimental: as §1, §2, §3

[5] = system: Candida albicans ATCC10231; assay: Broth microdilution MIC/MMC; format: cell-based; conditions: for MIC: Candida albicans ATCC10231, 48 h, 30°C
Experimental: as §1, §2, §3

[6] = system: methicillin-resistant Staphylococcus aureus 04 (MRSA04); assay: Broth microdilution MIC/MMC; format: cell-based; conditions: for MMC/MIC / MBC: MRSA04; for MBC / MIC: Staphylococcus aureus; for MIC: MRSA04, 24 h, 37°C, read-out: MIC
Experimental: as §1, §2, §3

[7] = system: Cryptococcus neoformans H99; assay: Broth microdilution MIC/MMC; format: cell-based; conditions: for MIC: Cryptococcus neoformans H99, 72 h, 30°C
Experimental: as §1, §2, §3

[8] = system: tested bacteria and yeasts; assay: Broth microdilution MIC/MMC, summary over all strains; format: cell-based; conditions: for antimicrobial activity class of pure compounds by cutoff points: against specific microorganism, cutoff points of ref 33; for MIC: read-out: MIC (range over the tested microorganisms); for antimicrobial activity: against the tested microorganisms
Experimental: as §1, §2, §3

[9] = Gallic acid equivalent antioxidant capacity (GEAC) assay; conditions: for Gallic acid equivalent antioxidant capacity (GEAC): ABTS radical, 420 nm, 240 s, mean ± SD
Experimental: The GEAC test was performed as described previously with some slight modifications. The laccase was purified from Sclerotinia sclerotiorum according to the described protocol. 20 μL of laccase (1 mM stock solution), 20 μL of test sample, 10 μL of ABTS (2,2′-azino-bis(3-ethylbenzothiazoline-6-sulfonic acid) (74 mM stock solution), and 950 μL of acetate buffer (pH = 5.0, 100 mM) were added in a quartz cuvette. The concentrations of the samples in the assay mixture were 800, 400, 200, 100, and 10 μg/mL for the extracts and 200, 100, 50, 25, and 12.5 μg/mL for the isolated compounds. The content of the generated ABTS^●+ radical was measured at 420 nm after 240 s reaction time and was converted to gallic acid equivalents by the use of a calibration curve (Pearson's correlation coefficient: r = 0.998) constructed with 0, 4, 10, 14, 28, 56, and 84 μM gallic acid standards rather than Trolox. Experiments were done in triplicate and repeated three times with similar results.

Structure (SMILES)	DPPH free radical scavenging activity (EC50) [1]	MBC (Escherichia coli S2(1))	MMC/MIC (Escherichia coli S2(1))	MIC (Escherichia coli S2(1))	MBC [2]	MMC/MIC [2]	MIC [2]	MBC [3]	MIC [3]	MBC [4]	MMC/MIC [4]	MIC [4]	MFC ([5]; Candida albicans ATCC10231)	MIC ([5]; read-out: MIC)	MBC [6]	MIC [6]	MFC ([7]; Cryptococcus neoformans H99)	MIC ([7]; read-out: MIC)	antimicrobial activity class of pure compounds by cutoff points [8]	MIC [8]	further results
O=C1O[C@H]([C@@H](O)CO)C(O)=C1O [Vitamin C, reference compound]	1.81 ± 0.19^h μg/mL	–	–	–	–	–	–	–	–	–	–	–	–	–	–	–	–	–	–	–	–
COc1ccc(-c2coc3cc(O)cc(O)c3c2=O)cc1 [compound 1, biochanin A]	4.87 ± 0.43^d μg/mL	64 µg/mL (≈ 225 µM)	2	32 µg/mL (≈ 113 µM)	32 µg/mL (≈ 113 µM)	1	32 µg/mL (≈ 113 µM)	128 µg/mL (≈ 450 µM)	64 µg/mL (≈ 225 µM)	64 µg/mL (≈ 225 µM)	2	32 µg/mL (≈ 113 µM)	64 µg/mL (≈ 225 µM)	32 µg/mL (≈ 113 µM)	128 µg/mL (≈ 450 µM)	64 µg/mL (≈ 225 µM)	32 µg/mL (≈ 113 µM)	32 µg/mL (≈ 113 µM)	moderate	32 to 64 µg/mL (≈ 113 to 225 µM)	MMC/MIC [3]: 2; MMC/MIC ([5]; Candida albicans ATCC10231): 2; MMC/MIC [6]: 2; MMC/MIC ([7]; Cryptococcus neoformans H99): 1; Gallic acid equivalent antioxidant capacity (GEAC) [9]: 101.77 ± 1.24^d μg/mL
O=c1cc(-c2ccc(O[C@@H]3O[C@H](CO)[C@@H](O)[C@H](O)[C@H]3O)c(O)c2)oc2cc(O)cc(O)c12 [compound 4, luteolin-4′-O-β-D-glucopyranoside]	3.71 ± 0.99^d μg/mL	32 µg/mL (≈ 71.4 µM)	1	32 µg/mL (≈ 71.4 µM)	64 µg/mL (≈ 143 µM)	2	32 µg/mL (≈ 71.4 µM)	128 µg/mL (≈ 285 µM)	64 µg/mL (≈ 143 µM)	128 µg/mL (≈ 285 µM)	2	64 µg/mL (≈ 143 µM)	16 µg/mL (≈ 35.7 µM)	16 µg/mL (≈ 35.7 µM)	128 µg/mL (≈ 285 µM)	64 µg/mL (≈ 143 µM)	16 µg/mL (≈ 35.7 µM)	16 µg/mL (≈ 35.7 µM)	moderate	16 to 64 µg/mL (≈ 35.7 to 143 µM)	MMC/MIC [3]: 2; MMC/MIC ([5]; Candida albicans ATCC10231): 1; MMC/MIC [6]: 2; MMC/MIC ([7]; Cryptococcus neoformans H99): 1; Gallic acid equivalent antioxidant capacity (GEAC) [9]: 118.71 ± 0.19^g μg/mL
COc1ccc(-c2coc3cc(OC4OC(CO)C(O)C(O)C4O)cc(O)c3c2=O)cc1 (centres unmarked) [compound 6, sissotrin]	7.13 ± 0.97^e μg/mL	128 µg/mL (≈ 287 µM)	2	64 µg/mL (≈ 143 µM)	128 µg/mL (≈ 287 µM)	2	64 µg/mL (≈ 143 µM)	> 256 µg/mL	256 µg/mL (≈ 573 µM)	256 µg/mL (≈ 573 µM)	2	128 µg/mL (≈ 287 µM)	> 256 µg/mL	64 µg/mL (≈ 143 µM)	> 256 µg/mL	256 µg/mL (≈ 573 µM)	256 µg/mL (≈ 573 µM)	32 µg/mL (≈ 71.7 µM)	moderate/low	32 to 256 µg/mL (≈ 71.7 to 573 µM)	MMC/MIC ([7]; Cryptococcus neoformans H99): 8; Gallic acid equivalent antioxidant capacity (GEAC) [9]: 72.96 ± 1.54^i μg/mL
CO[C@@H]1O[C@H](CO)[C@@H](O)[C@H](O)[C@H]1O [compound 7, 1-methyl-β-D-glucopyranoside]	–	> 256 µg/mL	–	> 256 µg/mL	> 256 µg/mL	–	> 256 µg/mL	> 256 µg/mL	> 256 µg/mL	> 256 µg/mL	–	> 256 µg/mL	> 256 µg/mL	> 256 µg/mL	> 256 µg/mL	> 256 µg/mL	> 256 µg/mL	> 256 µg/mL	not active	> 256 µg/mL	antimicrobial activity [8]: not active; activity in TEAC assay [9]: inactive; activity in DPPH assay [1]: inactive
COc1ccc(-c2coc3cc(O[C@@H]4O[C@H](CO)[C@@H](O)[C@H](O)[C@H]4O)ccc3c2=O)cc1 [compound 8, ononin]	38.96 ± 1.54^g μg/mL	256 µg/mL (≈ 595 µM)	2	128 µg/mL (≈ 297 µM)	256 µg/mL (≈ 595 µM)	4	64 µg/mL (≈ 149 µM)	> 256 µg/mL	256 µg/mL (≈ 595 µM)	256 µg/mL (≈ 595 µM)	1	256 µg/mL (≈ 595 µM)	> 256 µg/mL	128 µg/mL (≈ 297 µM)	> 256 µg/mL	256 µg/mL (≈ 595 µM)	> 256 µg/mL	64 µg/mL (≈ 149 µM)	moderate/low	64 to 256 µg/mL (≈ 149 to 595 µM)	Gallic acid equivalent antioxidant capacity (GEAC) [9]: 57.43 ± 0.97^j μg/mL
OC[C@@H](O)[C@@H](O)[C@H](O)[C@H](O)CO [compound 9, D-mannitol]	–	> 256 µg/mL	–	128 µg/mL (≈ 703 µM)	> 256 µg/mL	–	128 µg/mL (≈ 703 µM)	> 256 µg/mL	> 256 µg/mL	> 256 µg/mL	–	256 µg/mL (≈ 1410 µM)	> 256 µg/mL	> 256 µg/mL	> 256 µg/mL	> 256 µg/mL	> 256 µg/mL	256 µg/mL (≈ 1410 µM)	low/not active	≥ 128 µg/mL	antimicrobial activity [8]: low activity; activity in TEAC assay [9]: inactive; activity in DPPH assay [1]: inactive
CC1(C)CC(O)C2(C)CCC3(C)C(=CCC4C5(C)CCC(OC6OC(C(=O)O)C(O)C(O)C6O)C(C)(CO)C5CCC43C)C2C1 [compound 10, 3-O-β-D-glucuronopyranosylsoyasapogenol B]	–	> 256 µg/mL	–	256 µg/mL (≈ 403 µM)	> 256 µg/mL	–	256 µg/mL (≈ 403 µM)	> 256 µg/mL	> 256 µg/mL	> 256 µg/mL	–	256 µg/mL (≈ 403 µM)	> 256 µg/mL	> 256 µg/mL	> 256 µg/mL	> 256 µg/mL	> 256 µg/mL	256 µg/mL (≈ 403 µM)	low/not active	≥ 256 µg/mL	antimicrobial activity [8]: low activity; activity in TEAC assay [9]: inactive; activity in DPPH assay [1]: inactive
C[C@@H]1[C@H](O)[C@@H](C)/C=C/C=C/CC/C=C/C=C/C=C/C=C/C(O[C@H]2O[C@H](C)[C@@H](O)[C@H](N)[C@@H]2O)CC2O[C@](O)(CC(O)C(O)CCC(O)CC(O)CC(O)CC(=O)O[C@H]1C)CC(O)C2C(=O)O (some centres unmarked) [nystatin, reference compound]	–	–	–	–	–	–	–	–	–	–	–	–	–	–	–	–	–	–	–	–	MMC ([5]; Candida albicans ATCC10231): 1 µg/mL; MMC/MIC ([5]; Candida albicans ATCC10231): 1; MIC [5]: 1 µg/mL (≈ 1.08 µM); MMC ([7]; Cryptococcus neoformans H99): 2 µg/mL; MMC/MIC ([7]; Cryptococcus neoformans H99): 1; MIC [7]: 2 µg/mL (≈ 2.16 µM); MMC/MIC (microbicidal activities) ([8]; against all the tested microorganisms): ≤ 4
